Data: patent US5696113A, “Antipsychotic agents, compositions and method of use” (Hoechst Marion Roussel, Inc., priority 1996, dated 1997)
pIC50: −log10 of the molar value. Counter-ions that a name gives are not always drawn. Like-named read-outs stand apart in the source and are kept apart here.

Experiments:
[1] = tested on: dopamine neurons, substantia nigra (A9); assay: Chronic single-unit dopamine neuron sampling, A9 region; conditions: for % Change in A9 region (dopamine neuron sampling): ip, once a day for 21 days, vs vehicle, dose 20 mg/kg for the hydrobromide compound
Protocol: Dopamine Neuron Sampling. Male Wistar rats (280-360 grams) were used in this procedure. They were housed for at least 48 hours in a climate-controlled vivarium with food and water continuously available. Each rat was initially anesthetized with chloral hydrate (400 mg/kg ip) and maintained with additional injections as needed throughout the experiment. The animal was mounted in a stereotaxic apparatus (Kopf, model 900). The cranium was exposed, cleaned of connective tissue and dried. The skull overlying both the substantia nigra [A9:anterior (A) 3000-3400 microns, lateral (L) 1800-2400 microns from lambda)] and the ventral tegmental area (A10: A3000-3400 microns, L 400-1000 microns from lambda)^47 was removed. Using the dura as a point of reference, a micropipette driven by a hydraulic microdrive was lowered through the opening in the skull at vertical 6000-8500 microns. Spontaneously firing dopamine neurons within both the substantia nigra and the ventral tegmental areas were counted by lowering the electrode into twelve separate tracks (each track separated from the other by 200 microns) in each region. The sequence of the tracks was kept constant, forming a block of tissue which could be repoducibly located from animal to animal.
Extracellular neuronal signals were sampled using a single barrel micropipette approximately one micron at its tip, and filled with 2M NaCl saturated with 1% pontamine sky blue dye. The in vitro impedance of this piper (measured with a Winston Electronics Co., BL-1000 Micro Electrode Tester) was between 5 and 10 megaohms. […] Only cells whose electrophysiological characteristics matched those previously established for midbrain dopamine neurons were counted.
At the end of each experiment, the location of the last recorded track tip was marked by passing 25 microampere cathodal current through the recording micropipette barrel for 15 minutes in order to deposit a spot of dye. The rat was sacrificed; the brain was then removed, dissected and frozen on a bed of dry ice. Frozen serial sections (20 microns in width) were cut, mounted, and stained with cresyl violet and examined using a light microscope.
Animals pretreated with vehicle prior to neuronal sampling served as controls. Compounds were prepared as percent base. Each compound was suspended in distilled water and one drop of Tween 80, and kept constantly agitated during dosing. All compounds were delivered at a dodge volume of 1 mg/kg by the intraperitoneal route. For animals used in the chronic single-unit, dopamine neuron sampling assay, the compounds were administered once a day for 21 days, and dopamine neuron sampling was begun two hours after the last dose on the 21st day. […]

apomorphine climbing = assay: Climbing Mouse Assay (apomorphine-induced climbing); type: in vivo, mice (CK-1 male); conditions: ip, read-out: CLIMBING MOUSE ASSAY (ED50 mg/kg, ip)
Protocol: Antipsychotic activity is determined in the climbing mice assay by a method similar to those described by P. Protais, et al, Psychopharmacol.
Subject […] male mice (23-27 grams) are group-housed under standard laboratory conditions. The mice are individually placed in wire mesh stick cages (4"×10") and are allowed one hour for adaption and exploration of the new environment.
For evaluation of climbing, 3 readings are taken at 10, 20, and 30 minutes after apomorphine administration according to the following scale:
Mice consistently climbing before the injection of apomorphine are discarded.
With full-developed apomorphine climbing, the animals are hanging on to the cage walls, rather motionless, over long periods of time. By contrast, climbs due to mere motor stimulation usually only last a few seconds.
The climbing scores are individually totaled (maximal score: 6 per mouse over 3 readings) and the total score of the control group (vehicle intraperitoneally, apomorphine subcutaneously) is set to 100%.

[2] = tested on: postsynaptic dopamine receptors; assay: Apomorphine stereotypy inhibition in rats (APO-S); type: in vivo, male Wistar rats; conditions: ip, apomorphine 1.5 mg/kg s.c.
Protocol: APOMORPHINE STEREOTYPY INHIBITION IN RATS
For a primary screen, a group size of six is used. Drug is administered one hour prior to scoring and the animals are placed in individual clear plastic cages (24×14×13 cm). The control group receives vehicle. Apomorphine is prepared at a concentration of 15 mg/10 ml in a […] ascorbic acid stock solution prepared with 30 mg of ascorbic acid in 100 ml of 1% saline to increase the stability of the apomorphine while in solution. […] Stereotypic behavior is noted 10 minutes later. […] Stereotypic behavior is defined as sniffing, licking or chewing behavior which occurs in a repetitive manner and is continuous for a 10-second period in the presence of white noise. The animal is considered protected if this behavior is interrupted. The percent effectiveness of a drug is determined by the number of animals protected in each group.
A dose-response is determined in the same manner as a primary screen except that a group size of 10 is used and the animals are dosed in a randomized manner. One group receives vehicle. ED50 values for inhibition of stereotypy are calculated by means of Litchfield and Wilcoxon Analysis.

[3] = tested on: dopamine neurons, ventral tegmental area (A10); assay: Chronic single-unit dopamine neuron sampling, A10 region; type: in vivo, male Wistar rats; conditions: ip, once a day for 21 days, vs vehicle; dose 20 mg/kg for the hydrobromide compound
Protocol: Dopamine Neuron Sampling.
Compounds were prepared as percent base.

[4] = tested on: dopamine neurons, substantia nigra (A9); conditions: repeated administration; background statement; cited from earlier work
[5] = target: T1, 5HT2 Site (cerebral cortical membranes) (Rattus norvegicus, UniProt P14842); assay: 3H-Spiroperidol binding to cerebral cortical membranes (5HT2 site); design: species or system rats; conditions: 3H-spiroperidol 1.5 nM, 37° C., 10 min, pH 7.7
T1 construct: from tissue; host or cells: rat cerebral cortex (membranes)
Protocol: (§1) D2 /5T-HT2 BINDING ASSAYS
^3 H-Spiroperidol Binding to Cerebral Cortical membranes (5HT2 Site) in Rats
Nonspecific binding was determined in the presence of 5 μM methysergide. The incubation was terminated by rapid filtration through Whatman GF/B filters.

[6] = target: T2, D2-Dopaminergic Site (striatal membranes) (Rattus norvegicus, UniProt P61169); assay: 3H-Spiroperidol binding to striatal membranes (D2-dopaminergic site); design: species or system rats
T2 construct: from tissue; host or cells: rat striatum (membranes)
Protocol: as §1
^3 H-Spiroperidol Binding to Striatal Membranes (D2 -Dopaminergic Site) in Rats
Striatal membranes were incubated with ^3 H-spiroperidol (0.4 nM) and various concentrations of test drug at 37° C. for 10 minutes in 1 ml of 0.05 M Tris-HCl buffer, pH 7.7 containing 120 mM NaCl, 5 mM KCl, 2 mM CaCl2, and 1 mM MgCl2. Nonspecific binding was determined in the presence of 2μM(+)-butaclamol. Bound ligand was separated by rapid filtration through Whatman GF/B filters.

[7] = apomorphine 1.5 mg/kg s.c., linear regression

T2 sequence (P61169 whole entry): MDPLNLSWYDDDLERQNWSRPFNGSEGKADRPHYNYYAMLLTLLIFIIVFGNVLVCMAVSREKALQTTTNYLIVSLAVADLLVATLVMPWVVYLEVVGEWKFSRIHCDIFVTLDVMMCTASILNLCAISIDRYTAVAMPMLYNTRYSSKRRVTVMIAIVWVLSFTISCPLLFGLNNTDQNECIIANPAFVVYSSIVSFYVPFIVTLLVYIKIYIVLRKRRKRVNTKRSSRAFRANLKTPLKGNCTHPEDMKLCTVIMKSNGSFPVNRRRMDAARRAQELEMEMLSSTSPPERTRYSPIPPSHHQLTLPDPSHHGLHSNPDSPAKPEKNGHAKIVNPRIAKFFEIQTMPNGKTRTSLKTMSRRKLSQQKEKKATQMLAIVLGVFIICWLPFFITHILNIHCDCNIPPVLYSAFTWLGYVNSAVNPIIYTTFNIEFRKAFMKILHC
T1 sequence (P14842 whole entry): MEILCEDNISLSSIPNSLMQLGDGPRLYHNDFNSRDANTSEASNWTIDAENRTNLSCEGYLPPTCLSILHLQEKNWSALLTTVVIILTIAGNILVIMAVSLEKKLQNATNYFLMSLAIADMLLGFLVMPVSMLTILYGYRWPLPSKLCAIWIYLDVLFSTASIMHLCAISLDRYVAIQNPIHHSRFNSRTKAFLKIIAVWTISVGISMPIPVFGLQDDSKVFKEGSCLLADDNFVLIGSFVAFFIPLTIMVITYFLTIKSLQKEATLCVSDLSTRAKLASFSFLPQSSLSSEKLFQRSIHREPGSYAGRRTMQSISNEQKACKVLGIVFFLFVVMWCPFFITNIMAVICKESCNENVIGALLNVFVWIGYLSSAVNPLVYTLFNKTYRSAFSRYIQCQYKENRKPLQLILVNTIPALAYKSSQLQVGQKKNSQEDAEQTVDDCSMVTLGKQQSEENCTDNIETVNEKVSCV

Row | Structure (SMILES) | % Change in A9 region (dopamine neuron sampling) [1] | number of DA neurons in the A9 area (EPS propensity) ([1]; result in words) | ED50 (apomorphine climbing) [mg/kg] | ED50 ([2]; Rattus norvegicus, Litchfield and Wilcoxon) [mg/kg] | % Change in A10 region (dopamine neuron sampling) [3] [%] | ED50 (apomorphine climbing; [7]) [mg/kg] | APOMORPHINE STEREOTYPY INHIBITION (ED50) ([2]; Litchfield and Wilcoxon) [mg/kg] | depolarization inactivation of the DA neurons in the A9 area [4] | pIC50 [5] | pIC50 ([6]; 3H-spiroperidol 0.4 nM, 37° C., 10 min, pH 7.7) | D2/5-HT2 ([6]; ratio of D2 IC50 to 5-HT2 IC50) | APOMORPHINE STEREOTYPY INHIBITION (% inhibition) ([2]; at 4.0 mg/kg) [%]
1 | CN1CCN(C2=Nc3cc(Cl)ccc3Nc3ccccc32)CC1 [Clozapine] | +37% | do not cause a decrease in the number of DA neurons in the A9 area | 8.1 | > 40 | -79 | – | – | – | – | – | – | –
2 | O=C(CCCN1CCC(O)(c2ccc(Cl)cc2)CC1)c1ccc(F)cc1 [Haloperidol] | -30% | – | – | – | -35 | 0.11 | 0.6 | cause a depolarization inactivation of the DA neurons in the A9 area of the brain | – | – | – | –
3 | O=C(CCCN1CCN(c2noc3cc(O)ccc23)CC1)c1ccc(F)cc1 [Example 3, 3-[1-(4'-Fluorobenzoyl)propyl-4-piperazinyl]-6-hydroxy-1,2-benzisoxazole hydrobromide] | +1.4% | – | – | – | -44.9 | 0.4 | – | – | 7.35 | 6.62 | 5.3 | 0
4 | COc1ccc2c(N3CCN(CCCC(=O)c4ccc(F)cc4)CC3)noc2c1 [Example 1b, 3-[1-(4'-Fluorobenzoyl)propyl-4-piperazine]-6-methoxy-1,2-benzisoxazole] | – | – | – | – | – | 5.28 | – | – | – | – | – | –
